In patent US11214803B2, “Modulators of YAP1 expression” (Ionis Pharmaceuticals, Inc., priority 2019, dated 2022):
Strand notation (5' to 3'): a small letter for the sugar, then the base; units joined by * are phosphorothioate-linked, units joined directly phosphodiester-linked; [ ] holds rarer units or linkages, { } end groups; capitals alone tell only the bases. k = constrained ethyl (cEt); [5mC] = 5-methylcytosine; d = 2'-deoxy (DNA)

Test system: Yap1 mRNA
Assay: Antisense inhibition of human Yap1 in A-431 cells by cEt gapmers, single dose (Example 1, RTS4814)
Assay type: cell-based
Protocol: Modified oligonucleotides were designed to target a Yap1 nucleic acid and were tested for their effect on Yap1 mRNA level in vitro. The modified oligonucleotides were tested in a series of experiments that had similar culture conditions. Cultured A-431 cells at a density of 5,000 cells per well were treated using free uptake with 2,000 nM of modified oligonucleotide. After a treatment period of approximately 48 hours, RNA was isolated from the cells and Yap1 mRNA levels were measured by quantitative real-time RTPCR. Human primer probe set RTS4814 (forward sequence […], designated herein as SEQ ID NO.: 11; reverse sequence […], designated herein as SEQ ID NO.: 12; probe sequence […], designated herein as SEQ ID NO.: 13) was used to measure mRNA levels. Yap1 mRNA levels were normalized to total RNA content, as measured by RIBOGREEN®. Results are presented in the tables below as percent control of the amount of Yap1 mRNA relative to untreated control cells (% UTC). The modified oligonucleotides with percent control values marked with an asterisk (*) target the amplicon region of the primer probe set. Additional assays may be used to measure the potency and efficacy of the modified oligonucleotides targeting the amplicon region.
The newly designed modified oligonucleotides in the Tables below were designed as 3-10-3 cEt gapmers. The gapmers are 16 nucleosides in length, wherein the central gap segment comprises of ten 2′-deoxynucleosides and is flanked by wing segments on the 5′ direction and the 3′ direction comprising three nucleosides each. Each nucleoside in the 5′ wing segment and each nucleoside in the 3′ wing segment has a cEt sugar modification. The internucleoside linkages throughout each gapmer are phosphorothioate (P═S) linkages. All cytosine residues throughout each gapmer are 5-methylcytosines.
“Start site” indicates the 5′-most nucleoside to which the gapmer is targeted in the human gene sequence. “Stop site” indicates the 3′-most nucleoside to which the gapmer is targeted human gene sequence. […] Activity of the modified oligonucleotide may be defined in a different experiment.

[1] = Table 1, A-431 cells, free uptake, 2,000 nM, approximately 48 hours, RTS4814, Yap1 mRNA relative to untreated control cells
[2] = Table 2, A-431 cells, free uptake, 2,000 nM, approximately 48 hours, RTS4814, Yap1 mRNA relative to untreated control cells
[3] = A-431 cells, 5,000 cells per well, free uptake, 2,000 nM modified oligonucleotide, approx. 48 hours, RTS4814, normalized to RIBOGREEN, Table 3

| Substance | YAP1 (% UTC) [2] | YAP1 (% UTC) [3] | further results |
| --- | --- | --- | --- |
| 715616 (antisense kG*kA*k[5mC]*dG*dG*dA*dT*dA*dA*dA*dA*dA*dT*kT*kA*k[5mC]) [Compound 715616] |  |  | YAP1 (% UTC) [1]: 95 % UTC |
| 715449 (antisense kT*kT*k[5mC]*dT*d[5mC]*dA*dA*dT*dT*d[5mC]*d[5mC]*dT*dG*kA*kG*kA) [Compound 715449] | 124 % UTC |  |  |
| 715589 (k[5mC]*k[5mC]*kA*dG*d[5mC]*dA*dG*d[5mC]*dT*dA*dA*d[5mC]*dA*kG*k[5mC]*kT; antisense) [Compound 715589] |  |  | YAP1 (% UTC) [1]: 107 % UTC |
| 715450 (antisense kT*kT*kG*dT*dT*d[5mC]*dT*d[5mC]*dA*dA*dT*dT*d[5mC]*k[5mC]*kT*kG) [Compound 715450] |  | 53 % UTC |  |
| 715558 (k[5mC]*kA*kG*dG*dA*dA*dG*dT*dT*dA*dT*dT*d[5mC]*kA*kG*k[5mC]; antisense) [Compound 715558] |  | 37 % UTC |  |
| 715464 (antisense k[5mC]*k[5mC]*kA*d[5mC]*dA*dT*dT*dT*dG*dT*d[5mC]*d[5mC]*d[5mC]*kA*kG*kG) [Compound 715464] | 89 % UTC |  |  |
| 715605 (antisense k[5mC]*kA*kT*dA*dG*d[5mC]*dA*d[5mC]*dA*dG*dA*dA*dT*kT*k[5mC]*k[5mC]) [Compound 715605] | 112 % UTC |  |  |
| 715422 (kA*kT*kG*dT*dT*dG*dT*dT*dG*dT*d[5mC]*dT*dG*kA*kT*k[5mC]; antisense) [Compound 715422] | 57 % UTC |  |  |
| 715591 (k[5mC]*kT*kT*dT*dG*dG*d[5mC]*dA*dG*dA*dG*dA*dT*kA*kA*kA; antisense) [Compound 715591] |  | 41 % UTC |  |
| 715486 (antisense kT*kA*k[5mC]*dT*dT*d[5mC]*dA*dT*dA*dG*d[5mC]*dT*dT*kA*kT*kA) [Compound 715486] |  | 27 % UTC |  |
| 715413 (k[5mC]*kA*kT*dG*d[5mC]*dT*dG*dT*dG*dG*dA*dG*dT*k[5mC]*kA*kG; antisense) [Compound 715413] | 96 % UTC |  |  |
| 715503 (antisense k[5mC]*k[5mC]*k[5mC]*d[5mC]*dA*dG*dA*d[5mC]*dT*dT*dA*dA*dT*kT*k[5mC]*kA) [Compound 715503] | 136 % UTC |  |  |
| 715623 (antisense k[5mC]*k[5mC]*kT*dA*dA*dG*dA*dG*dT*dA*dA*dA*dA*kA*kA*kT) [Compound 715623] | 113 % UTC |  |  |
| 715406 (k[5mC]*kT*kT*dG*dA*dA*dG*dA*dA*dG*dG*dA*dG*kT*k[5mC]*kG; antisense) [Compound 715406] |  |  | YAP1 (% UTC) [1]: 58 % UTC |
| 715508 (antisense k[5mC]*kT*kG*dT*dG*d[5mC]*dT*dG*dG*dG*dA*dT*dT*kG*kA*kT) [Compound 715508] |  |  | YAP1 (% UTC) [1]: 24 % UTC |
| 715488 (antisense k[5mC]*kT*kA*dT*dT*dA*d[5mC]*dT*dT*d[5mC]*dA*dT*dA*kG*k[5mC]*kT) [Compound 715488] | 66 % UTC |  |  |
| 715614 (antisense kA*kA*kA*dT*dT*dA*d[5mC]*dT*dT*dT*dA*dA*dG*k[5mC]*k[5mC]*kA) [Compound 715614] | 110 % UTC |  |  |
| 715570 (kG*k[5mC]*k[5mC]*dA*dA*dA*dG*dG*dT*dA*dG*dG*dA*kT*kA*kA; antisense) [Compound 715570] |  | 79 % UTC |  |
| 715603 (antisense kG*k[5mC]*kA*d[5mC]*dA*dG*dA*dA*dT*dT*d[5mC]*d[5mC]*d[5mC]*kA*kA*kG) [Compound 715603] |  | 106 % UTC |  |
| 715443 (antisense kT*kT*k[5mC]*dA*d[5mC]*dT*dG*dG*dA*dG*d[5mC]*dA*d[5mC]*kT*k[5mC]*kT) [Compound 715443] | 40 % UTC |  |  |
| 715502 (antisense k[5mC]*k[5mC]*kA*dG*dA*d[5mC]*dT*dT*dA*dA*dT*dT*d[5mC]*kA*kA*kG) [Compound 715502] |  |  | YAP1 (% UTC) [1]: 91 % UTC |
| 715453 (antisense kA*kG*kG*dT*dG*d[5mC]*d[5mC]*dA*d[5mC]*dT*dG*dT*dT*kA*kA*kG) [Compound 715453] |  | 59 % UTC |  |
| 715426 (kA*kT*k[5mC]*d[5mC]*dA*dT*d[5mC]*dA*dG*dG*dA*dA*dG*kA*kG*kG; antisense) [Compound 715426] |  | 80 % UTC |  |
| 715572 (kT*k[5mC]*kA*dG*dA*dG*dA*dA*dG*dA*dA*dA*dG*kG*kT*kA; antisense) [Compound 715572] | 97 % UTC |  |  |

| Substance | YAP1 (% UTC) [2] | YAP1 (% UTC) [3] | further results |
| --- | --- | --- | --- |
| 715552 (kA*kA*kA*dT*dA*dG*dG*dA*dA*dG*dT*dT*dG*kT*kT*kG; antisense) [Compound 715552] |  | 86 % UTC |  |
| 715533 (k[5mC]*k[5mC]*kT*dA*dA*d[5mC]*dA*dA*d[5mC]*d[5mC]*dT*dG*dG*kT*kT*kT; antisense) [Compound 715533] | 97 % UTC |  |  |
| 715546 (kT*kG*kA*d[5mC]*d[5mC]*dA*dA*d[5mC]*dT*dA*d[5mC]*dT*dT*kG*kA*kA; antisense) [Compound 715546] |  | 59 % UTC |  |
| 715493 (antisense kG*kT*kG*d[5mC]*dT*dA*dG*d[5mC]*dT*dG*dG*dT*dG*k[5mC]*k[5mC]*kA) [Compound 715493] |  |  | YAP1 (% UTC) [1]: 62 % UTC |
| 715579 (k[5mC]*kT*kG*dT*d[5mC]*dT*dG*dG*dA*dA*dT*dA*d[5mC]*kA*k[5mC]*kA; antisense) [Compound 715579] |  | 100 % UTC |  |
| 715439 (antisense kG*kG*kT*dT*d[5mC]*dA*dT*dG*dG*d[5mC]*dA*dA*dA*kA*k[5mC]*kG) [Compound 715439] |  |  | YAP1 (% UTC) [1]: 99 % UTC |
| 715485 (antisense kA*kA*kT*dA*d[5mC]*dT*d[5mC]*dT*dT*dT*dG*dG*dA*kA*kA*k[5mC]) [Compound 715485] | 72 % UTC |  |  |
| 715564 (k[5mC]*kA*kA*dG*d[5mC]*dA*d[5mC]*dA*d[5mC]*dA*dA*d[5mC]*dT*k[5mC]*kA*kG; antisense) [Compound 715564] |  | 75 % UTC |  |
| 715428 (kT*k[5mC]*k[5mC]*d[5mC]*dA*dT*d[5mC]*d[5mC]*dA*dT*d[5mC]*dA*dG*kG*kA*kA; antisense) [Compound 715428] | 106 % UTC |  |  |
| 715633 (kG*kT*kG*dA*dT*dA*dG*dG*dT*dG*d[5mC]*d[5mC]*dA*k[5mC]*kT*kA; antisense) [Compound 715633] |  | 78 % UTC |  |
| 715432 (k[5mC]*kT*k[5mC]*d[5mC]*dA*dT*d[5mC]*d[5mC]*dT*dG*dA*dG*dT*k[5mC]*kA*kT; antisense) [Compound 715432] |  | 65 % UTC |  |
| 715601 (antisense kA*kG*kA*dA*dT*dT*d[5mC]*d[5mC]*d[5mC]*dA*dA*dG*d[5mC]*kT*kA*k[5mC]) [Compound 715601] |  |  | YAP1 (% UTC) [1]: 106 % UTC |
| 715412 (k[5mC]*kT*kG*d[5mC]*dA*dT*d[5mC]*dA*dG*dT*dA*d[5mC]*dT*kG*kG*k[5mC]; antisense) [Compound 715412] |  |  | YAP1 (% UTC) [1]: 66 % UTC |
| 715424 (kT*kG*k[5mC]*d[5mC]*dA*dT*dG*dT*dT*dG*dT*dT*dG*kT*k[5mC]*kT; antisense) [Compound 715424] |  |  | YAP1 (% UTC) [1]: 58 % UTC |
| 715466 (antisense k[5mC]*kA*kA*dG*dG*dT*d[5mC]*d[5mC]*dA*d[5mC]*dA*dT*dT*kT*kG*kT) [Compound 715466] |  |  | YAP1 (% UTC) [1]: 83 % UTC |
| 715516 (k[5mC]*k[5mC]*kT*dA*dT*dG*dA*dG*dT*d[5mC]*dA*dA*d[5mC]*k[5mC]*kT*kG; antisense) [Compound 715516] |  | 77 % UTC |  |
| 715549 (kG*kA*kA*dG*dT*dT*dG*dT*dT*dG*dA*d[5mC]*d[5mC]*kA*kA*k[5mC]; antisense) [Compound 715549] |  | 66 % UTC |  |
| 715539 (kA*kG*kA*dT*d[5mC]*dT*d[5mC]*dA*d[5mC]*dT*dG*dA*d[5mC]*k[5mC]*kT*kA; antisense) [Compound 715539] | 102 % UTC |  |  |
| 715568 (kA*kA*kG*dG*dT*dA*dG*dG*dA*dT*dA*dA*dA*kT*kG*kA; antisense) [Compound 715568] |  |  | YAP1 (% UTC) [1]: 116 % UTC |
| 715586 (kA*kA*kA*dA*dG*dG*dT*d[5mC]*dT*dG*dG*dA*dA*k[5mC]*kA*kG; antisense) [Compound 715586] |  |  | YAP1 (% UTC) [1]: 53 % UTC |
| 715612 (antisense kT*kA*k[5mC]*dT*dT*dT*dA*dA*dG*d[5mC]*d[5mC]*dA*d[5mC]*kA*kT*kG) [Compound 715612] |  | 77 % UTC |  |
| 715573 (kT*kA*kT*dA*dT*dA*dT*dG*dG*dT*dA*dG*dT*k[5mC]*kT*kA; antisense) [Compound 715573] |  | 76 % UTC |  |
| 715506 (antisense kA*kA*kA*dT*dT*dG*dG*dT*dT*dT*dA*dT*dT*kG*kT*kA) [Compound 715506] | 112 % UTC |  |  |
